Measured values: patent US20180002295A1, “Compositions and Methods for Treating Anxiety and Compulsive Behavior” (University of Iowa Research Foundation, priority 2015, published 2018)
Entries after “also recorded” stand apart in the source; their conditions may differ.

Tests used:
SAPAP3-deficient mice [1] = assay: Spray-induced grooming assay (baseline and spray-induced grooming) in SAPAP3-deficient mice; type: in vivo; conditions: compared with wild type
SAPAP3-deficient mice [2] = conditions: reference 4; cited from earlier work
[3] = intracerebroventricular infusion into left lateral ventricle for 7 days by osmotic minipump
[4] = intraperitoneal, 10 mg/kg/d, 10 mg/kg/day

CCOc1ccc2nc(N/C(=N/C(=O)CC)NC(=O)CC)nc(C)c2c1 [P5C6]
basal (baseline) grooming (SAPAP3-deficient mice [1]; [3]): normalized | spray-induced grooming (SAPAP3-deficient mice [1]; [3]): normalized

CNCCC(Oc1ccc(C(F)(F)F)cc1)c1ccccc1 (centres unmarked) [fluoxetine]
basal (baseline) grooming (SAPAP3-deficient mice [1]; [4]): restored to wild type levels; also recorded: normalized | spray-induced grooming (SAPAP3-deficient mice [1]; [4]): restored to wild type levels; also recorded: normalized | compulsive grooming leading to acquisition of facial lesions (SAPAP3-deficient mice [2]): ameliorated
